According to patent US12194018B2, “Cannabinoid compositions” (SRE Wellness, Inc., priority 2016, dated 2025):

Assays:
[1] = edible Cannabis products; depending on liver function; cited from earlier work
[2] = in vivo; cited from earlier work
[3] = Emulsifying agents tested for emulsification of coconut oil and water (Example 2); format: physicochemical; conditions: coconut oils solid and liquid (MCT)
Description: Several experiments were run using several different emulsifiers and combinations of different coconut oils: solid and liquid (MCT). (Note: liquid MCT is coconut oil that has medium chain triglyceride).

Molecule | Share of the THC able to be metabolized [1] | Risk of lethal overdose [2] | Effectiveness as emulsifying agent (emulsification of the oil and water) [3]
CCCCCc1cc(O)c2c(c1)OC(C)(C)[C@@H]1CCC(C)=C[C@@H]21 [THC, Δ^9-tetrahydrocannabinol] | 2-6% | no risk of lethal overdose | –
cyclodextrin | – | – | good results
C=C(C)[C@@H]1CCC(C)=C[C@H]1c1c(O)cc(CCCCC)cc1O [CBD, cannabidiol] | – | no risk of lethal overdose | –
